Experimental data: ChEMBL document CHEMBL4257490, “Development of a peptide-based bifunctional chelator conjugated to a cytotoxic drug for the treatment of melanotic melanoma” (Medchemcomm, 2018)
The source made the active and inactive calls. No cut-off for these calls is given here. Residues, ends and D or L forms follow the SMILES beside them. *: point of attachment. X1 = O=c1nc(N*)ccn1[C@@H]1O[C@H](CO)[C@@H](O)C1(F)F

What was measured:
[1] = Drug uptake in lung of Balb/c mouse allografted with mouse B16F10 cells using 99mTc(CO)3-labeled compound at 10 to 12 MBq/kg, iv measured at 2 hrs; format: ADME, organism-based; settings: in vivo
B16-F10 [2] = test: Ratio of drug uptake in mouse B16F10 cells at 20 ug/ml after 4 hrs by flow cytometric method to drug uptake in mouse B16F10 cells at 20 ug/ml after 30 mins by flow cytometric method; format: ADME, cell-based
[3] = Drug uptake in kidney of Balb/c mouse allografted with mouse B16F10 cells using 99mTc(CO)3-labeled compound at 10 to 12 MBq/kg, iv measured at 4 hrs; format: ADME, organism-based; settings: in vivo
[4] = Drug uptake in mouse B16F10 cells using 99mTc(CO)3-labeled compound at 15 to 20 MBq/ml after 30 mins by gamma scintillation counting method relative to total added activity; format: ADME, cell-based; settings: b16-f10, 0.5 h
[5] = Drug uptake in mouse B16F10 cells using 5,6-carboxyfluorescein-labeled compound at 20 ug/ml after 4 hrs by DAPI staining-based fluorescence microscopic method; format: ADME, cell-based; settings: b16-f10, 4 h
[6] = Drug uptake in tumor muscle of Balb/c mouse allografted with mouse B16F10 cells using 99mTc(CO)3-labeled compound at 10 to 12 MBq/kg, iv measured at 4 hrs; format: ADME, organism-based; settings: in vivo
[7] = Drug uptake in blood of Balb/c mouse allografted with mouse B16F10 cells using 99mTc(CO)3-labeled compound at 10 to 12 MBq/kg, iv measured at 2 hrs; format: ADME, organism-based; settings: in vivo
B16-F10 [8] = test: Cytotoxicity against mouse B16F10 cells assessed as decrease in cell viability after 72 hrs by MTT assay; format: functional, cell-based; settings: B16-F10, 72 h
[9] = Drug uptake in liver of Balb/c mouse allografted with mouse B16F10 cells using 99mTc(CO)3-labeled compound at 10 to 12 MBq/kg, iv measured at 4 hrs; format: ADME, organism-based; settings: in vivo
[10] = Stability in saline assessed as parent compond remaining using 99mTc(CO)3-labeled compound after 24 hrs by TLC method; format: physicochemical; settings: read-out: Stability
[11] = Drug uptake in spleen of Balb/c mouse allografted with mouse B16F10 cells using 99mTc(CO)3-labeled compound at 10 to 12 MBq/kg, iv measured at 4 hrs; format: ADME, organism-based; settings: in vivo
[12] = Drug uptake in heart of Balb/c mouse allografted with mouse B16F10 cells using 99mTc(CO)3-labeled compound at 10 to 12 MBq/kg, iv measured at 2 hrs; format: ADME, organism-based; settings: in vivo
[13] = Drug uptake in liver of Balb/c mouse allografted with mouse B16F10 cells using 99mTc(CO)3-labeled compound at 10 to 12 MBq/kg, iv measured at 2 hrs; format: ADME, organism-based; settings: in vivo
[14] = Drug uptake in lung of Balb/c mouse allografted with mouse B16F10 cells using 99mTc(CO)3-labeled compound at 10 to 12 MBq/kg, iv measured at 4 hrs; format: ADME, organism-based; settings: in vivo
[15] = Drug uptake in mouse B16F10 cells using 99mTc(CO)3-labeled compound at 15 to 20 MBq/ml after 240 mins by gamma scintillation counting method; format: ADME, cell-based; settings: b16-f10, 4 h
[16] = Drug uptake in stomach of Balb/c mouse allografted with mouse B16F10 cells using 99mTc(CO)3-labeled compound at 10 to 12 MBq/kg, iv measured at 4 hrs; format: ADME, organism-based; settings: in vivo
[17] = Drug uptake in gastrointestinal tract of Balb/c mouse allografted with mouse B16F10 cells using 99mTc(CO)3-labeled compound at 4 to 8 MBq, iv measured at 4 hrs by scintigraphic imaging method; format: ADME, organism-based; settings: in vivo
[18] = Drug uptake in urine of Balb/c mouse allografted with mouse B16F10 cells using 99mTc(CO)3-labeled compound at 10 to 12 MBq/kg, iv measured at 4 hrs; format: ADME, organism-based; settings: in vivo
[19] = Metabolic stability in rat serum assessed as parent compound remaining using 99mTc(CO)3-labeled compound after 24 hrs by TLC method; format: ADME, cell-free; settings: read-out: Stability
[20] = Drug uptake in muscle of Balb/c mouse allografted with mouse B16F10 cells using 99mTc(CO)3-labeled compound at 10 to 12 MBq/kg, iv measured at 2 hrs; format: ADME, organism-based, Muscle tissue; settings: in vivo
[21] = Drug uptake in urinary bladder of Balb/c mouse allografted with mouse B16F10 cells using 99mTc(CO)3-labeled compound at 4 to 8 MBq, iv measured at 4 hrs by scintigraphic imaging method; format: ADME, organism-based; settings: in vivo
[22] = Drug uptake in liver of Balb/c mouse allografted with mouse B16F10 cells using 99mTc(CO)3-labeled compound at 4 to 8 MBq, iv measured at 4 hrs by scintigraphic imaging method; format: ADME, organism-based; settings: in vivo
[23] = Drug uptake in blood of Balb/c mouse allografted with mouse B16F10 cells using 99mTc(CO)3-labeled compound at 10 to 12 MBq/kg, iv measured at 4 hrs; format: ADME, organism-based; settings: in vivo
[24] = Drug uptake in urine of Balb/c mouse allografted with mouse B16F10 cells using 99mTc(CO)3-labeled compound at 10 to 12 MBq/kg, iv measured at 2 hrs; format: ADME, organism-based; settings: in vivo
[25] = Drug uptake in intestine of Balb/c mouse allografted with mouse B16F10 cells using 99mTc(CO)3-labeled compound at 10 to 12 MBq/kg, iv measured at 4 hrs; format: ADME, organism-based; settings: in vivo
[26] = Ratio of drug level in tumor to muscle of Balb/c mouse allografted with mouse B16F10 cells using 99mTc(CO)3-labeled compound at 10 to 12 MBq/kg, iv measured at 2 hrs; format: ADME, organism-based, Tumor/tissue; settings: in vivo
[27] = Drug uptake in kidney of Balb/c mouse allografted with mouse B16F10 cells using 99mTc(CO)3-labeled compound at 4 to 8 MBq, iv measured at 4 hrs by scintigraphic imaging method; format: ADME, organism-based; settings: in vivo
[28] = Ratio of drug level in tumor to blood of Balb/c mouse allografted with mouse B16F10 cells using 99mTc(CO)3-labeled compound at 10 to 12 MBq/kg, iv measured at 4 hrs; format: ADME, organism-based, Tumor/tissue
[29] = Hemolytic activity in rat erythrocytes at 100 uM after 1 hr relative to control; format: ADME, cell-based, Erythrocyte; settings: read-out: Activity
[30] = Drug uptake in muscle of Balb/c mouse allografted with mouse B16F10 cells using 99mTc(CO)3-labeled compound at 10 to 12 MBq/kg, iv measured at 4 hrs; format: ADME, organism-based, Muscle tissue; settings: in vivo
[31] = Drug uptake in kidney of Balb/c mouse allografted with mouse B16F10 cells using 99mTc(CO)3-labeled compound at 10 to 12 MBq/kg, iv measured at 2 hrs; format: ADME, organism-based; settings: in vivo
[32] = Drug degradation in histidine solution using 99mTc(CO)3-labeled compound after 24 hrs by TLC method; format: physicochemical; settings: read-out: Drug degradation
[33] = Hemolytic activity in rat erythrocytes up to 50 uM after 1 hr relative to control; format: ADME, cell-based, Erythrocyte; settings: read-out: Activity
[34] = n-Octanol-phosphate buffer partition co-efficient, log P of 99mTc(CO)3-labeled compound at 2 to 3 KBq after 1 min by gamma scintillation counting method; format: physicochemical
[35] = Drug uptake in heart of Balb/c mouse allografted with mouse B16F10 cells using 99mTc(CO)3-labeled compound at 10 to 12 MBq/kg, iv measured at 4 hrs; format: ADME, organism-based; settings: in vivo
[36] = Drug uptake in tumor muscle of Balb/c mouse allografted with mouse B16F10 cells using 99mTc(CO)3-labeled compound at 10 to 12 MBq/kg, iv measured at 2 hrs; format: ADME, organism-based; settings: in vivo
[37] = Ratio of drug level in tumor to muscle of Balb/c mouse allografted with mouse B16F10 cells using 99mTc(CO)3-labeled compound at 10 to 12 MBq/kg, iv measured at 4 hrs; format: ADME, organism-based, Tumor/tissue; settings: in vivo
[38] = Drug uptake in stomach of Balb/c mouse allografted with mouse B16F10 cells using 99mTc(CO)3-labeled compound at 10 to 12 MBq/kg, iv measured at 2 hrs; format: ADME, organism-based; settings: in vivo
[39] = Drug uptake in tumor of Balb/c mouse allografted with mouse B16F10 cells using 99mTc(CO)3-labeled compound at 4 to 8 MBq, iv measured at 4 hrs by scintigraphic imaging method; format: ADME, organism-based, Neoplasm; settings: in vivo
[40] = Ratio of drug level in tumor to blood of Balb/c mouse allografted with mouse B16F10 cells using 99mTc(CO)3-labeled compound at 10 to 12 MBq/kg, iv measured at 2 hrs; format: ADME, organism-based, Tumor/tissue
[41] = Drug uptake in mouse B16F10 cells using 99mTc(CO)3-labeled compound at 15 to 20 MBq/ml after 30 mins by gamma scintillation counting method; format: ADME, cell-based; settings: b16-f10, 0.5 h
[42] = Drug uptake in mouse B16F10 cells using 99mTc(CO)3-labeled compound at 15 to 20 MBq/ml after 240 mins by gamma scintillation counting method relative to total added activity; format: ADME, cell-based; settings: b16-f10, 4 h
[43] = Drug uptake in intestine of Balb/c mouse allografted with mouse B16F10 cells using 99mTc(CO)3-labeled compound at 10 to 12 MBq/kg, iv measured at 2 hrs; format: ADME, organism-based; settings: in vivo
[44] = Drug uptake in spleen of Balb/c mouse allografted with mouse B16F10 cells using 99mTc(CO)3-labeled compound at 10 to 12 MBq/kg, iv measured at 2 hrs; format: ADME, organism-based; settings: in vivo
Mus musculus = test: Toxicity in mouse B16F10 cells allografted Balb/c mouse assessed as effect on body weight at 25 mg/kg, iv administered thrice weekly for 21 days starting on day 10 post tumor implantation (reference value: 30.52 +/- 2.9 g); format: organism-based; settings: in vivo, 504 h
B16-F10 [45] = test: Induction of apoptosis in mouse B16F10 cells assessed as nuclear fragmentation at IC50 after 72 hrs by DAPI staining-based fluorescence microscopic method; format: functional, cell-based
B16-F10 [46] = test: Induction of apoptosis in mouse B16F10 cells at IC50 after 72 hrs by annexin V-FITC/propidium iodide staining-based flow cytometric method relative to control; format: functional
B16-F10 [47] = test: Induction of apoptosis in mouse B16F10 cells assessed as necrotic cells at IC50 after 72 hrs by annexin V-FITC/propidium iodide staining-based flow cytometric method relative to control; format: functional
B16-F10 [48] = test: Antitumor activity against mouse B16F10 cells allografted in Balb/c mouse assessed as tumor growth inhibition at 25 mg/kg, iv administered thrice weekly for 21 days starting on day 10 post tumor implantation relative to control; format: functional; settings: read-out: TGI

N=C(N)NCCC[C@H](NC(=O)[C@@H](N)Cc1cnc[nH]1)C(=O)NCC(=O)N[C@@H](CC(=O)Nc1ccn([C@@H]2O[C@H](CO)[C@@H](O)C2(F)F)c(=O)n1)C(N)=O (H-HRGD(X1)-NH2)
Drug uptake [1]: 0.32 % ID/g
Ratio (B16-F10 [2]): 1.8
Drug uptake [3]: 3.24 % ID/g
Drug uptake [4]: 2.9%
Drug uptake [5]: Active
Drug uptake [6]: 0.83 % ID/g
Drug uptake [7]: 1.13 %ID/ml
IC50 (B16-F10 [8]): 210 nM
Drug uptake [9]: 14.39 % ID/g
remaining at 24 h [10]: ≥ 92%
Drug uptake [11]: 0.26 % ID/g
Drug uptake [12]: 0.07 % ID/g
Drug uptake [13]: 16.89 % ID/g
Drug uptake [14]: 0.2 % ID/g
Drug uptake [15]: 65%
Drug uptake [16]: 0.26 % ID/g
Drug uptake [17]: Active
Drug uptake [18]: 56.11 %ID/ml
remaining at 24 h [19]: ≥ 92%
Drug uptake [20]: 0.17 % ID/g
Drug uptake [21]: Active
Drug uptake [22]: Active
Drug uptake [23]: 0.88 %ID/ml
Drug uptake [24]: 53.11 %ID/ml
Drug uptake [25]: 9.06 % ID/g
Ratio [26]: 4.66
Drug uptake [27]: Active
Kp at 4 h [28]: 0.94
hemolysis at 1 h, 100 µM [29]: 7 to 9%
Drug uptake [30]: 0.17 % ID/g
Drug uptake [31]: 4.44 % ID/g
degraded at 24 h [32]: 5%
hemolysis at 1 h [33]: 5 to 6%
logP at 1 min [34]: -1.77
Drug uptake [35]: 0.05 % ID/g
Drug uptake [36]: 0.82 % ID/g
Ratio [37]: 4.89
Drug uptake [38]: 0.36 % ID/g
Drug uptake [39]: Not Active
Kp at 2 h [40]: 0.72
Drug uptake [41]: 30.45%
Drug uptake [42]: 4.99%
Drug uptake [43]: 7.9 % ID/g
Drug uptake [44]: 0.44 % ID/g

Nc1ccn([C@@H]2O[C@H](CO)[C@@H](O)C2(F)F)c(=O)n1 [GEMCITABINE]
Activity (Mus musculus): 28.65 g
Activity (B16-F10 [45]): Active
Activity (B16-F10 [46]): 26%
IC50 (B16-F10 [8]): 260 nM
Activity (B16-F10 [47]): 12 - 14%
inhibition in vivo at 25 mg/kg (B16-F10 [48]): 37%
